Laboratory results reported in patent publication US10251871B2, “Compositions and methods for treatment of edema” (Memorial Sloan Kettering Cancer Center, priority 2015, dated 2019).

Tests used:
[1] = tested on: ear skin lymphatic vessels (LYVE-1+); test: Ear punch wound model of cutaneous lymphangiogenesis; format: in vivo, mice; conditions: topical tacrolimus for 4 weeks, vs control ointment
Excerpt: We also studied lymphangiogenesis during wound healing using an ear punch wound model and applying topical tacrolimus or control ointment for 4 weeks. […] To test the possibility of direct lymphangiogenic effects of tacrolimus, we applied tacrolimus to unwounded mouse ears for 4 weeks, and then performed whole mount confocal imaging of lymphatic vessels. We observed no increase in lymphangiogenesis in this uninjured, non-inflamed setting (FIG. 16). […] A corneal lymphangiogenesis assay was performed as previously reported. Cursiefen et al., Cornea 25:443-447 (2006). Briefly, 10-0 nylon sutures (Ethicon, Cincinnati, Ohio) were placed in the cornea at […]. Beginning immediately after suture placement, animals were treated with systemic tacrolimus or vehicle control daily for two weeks, followed by analysis using confocal microscopy (Leica Microsystems, Weitziar, Germany). […] Cutaneous lymphangiogenesis was assessed using an ear punch wound model as previously reported. […] Tile-scan images were obtained using a confocal microscope (Leica Microsystems, Weitziar, Germany) and skin within 400 μm of the wound edge was analyzed using Metamorph software (Molecular Devices, Sunnyvale, Calif.). Standardized (200 μm×200 μm) fields were analyzed for the number of branch points present per unit area by two blinded reviewers.

[2] = reference range; cited from earlier work
[3] = tested on: circulating blood T cells; test: Flow cytometry of peripheral blood T cells; format: in vivo, mice
Procedure: Flow cytometry was performed on peripheral blood samples as previously reported. Zampell et al., PLoS ONE 7:e49940 (2012). Briefly, erythrocytes were lysed with RBC lysis buffer (Ebioscience, San Diego, Calif.) followed by staining with fluorophore-conjugated antibodies (CD45, CD3, and CD4; all from Biolegend, San Diego, Calif.) and analysis with a FACSCalibur flow cytometer (BD Biosciences, Franklin Lakes, N.J.) using FlowJo software (Tree Star, Ashland, Oreg.).

[4] = Tacrolimus blood level by mass spectrometry; format: in vivo, mice
Procedure: Blood levels of tacrolimus were measured using mass spectrometry in a modification of a previously reported method. Donaldson et al., Meth. Mol. Biol. 603:479-487 (2010). Briefly, whole blood was collected in sodium EDTA-coated tubes (Terumo, Shibuya, Japan) and then analyzed using a Thermo Scientific Aria TLX-2 turbulent flow chromatograph (TFC) coupled to a TSQ Quantum Ultra triple quadrupole mass spectrometer (Thermo Scientific, Franklin, Mass.). The TurboFlow column used was a Cyclone P-50×0.5 mm while the analytical column was a Hypersil Gold C-18 column, 3×50 mm. To whole blood (50 μL) was added 200 μL of 0.2 mM ZnSO4 containing ascomycin as an internal standard. Following a 30 minute incubation and centrifugation, 50 μL of the supernatant was injected into the TFC system. The analytes were eluted through the column (0.75 mL min^−1) with a gradient of water and methanol solutions containing 10 mM ammonium formate and 0.1% formic acid. The analytical run time was 4.5 minutes. The between-day imprecision of the assay was determined at three concentrations over a period of 10 days. At concentrations of 3.3, 12.6 and 31.9 ng mL^−1 the coefficients of variation were of 9.8, 7.0 and 7.8%, respectively. The assay has a linear range from 0 to 40 ng mL^−1.

unwounded mouse ears = test: Unwounded mouse ears, whole mount imaging of lymphatic vessels; format: in vivo, mice; conditions: tacrolimus applied to unwounded ears for 4 weeks
Excerpt: We also studied lymphangiogenesis during wound healing using an ear punch wound model and applying topical tacrolimus or control ointment for 4 weeks. […] To test the possibility of direct lymphangiogenic effects of tacrolimus, we applied tacrolimus to unwounded mouse ears for 4 weeks, and then performed whole mount confocal imaging of lymphatic vessels. We observed no increase in lymphangiogenesis in this uninjured, non-inflamed setting (FIG. 16).

[5] = tested on: corneal lymphatic and blood vessels; test: Corneal lymphangiogenesis assay (suture placement); format: in vivo, mice; conditions: systemic tacrolimus 4 mg kg^−1 IP daily for 2 weeks after suture placement, vs vehicle
Excerpt: To determine the lymphangiogenic effects of tacrolimus in other inflammatory and wound models in which drainage of lymphatic fluid is not obstructed surgically, we next used two other models of inflammatory lymphangiogenesis. The cornea is a useful tissue for studying lymphangiogenesis because it is normally devoid of both blood and lymphatic vessels but develops both in the setting of inflammation. Cursiefen et al., J. Clin. Invest. 113:1040-1050 (2004). […] A corneal lymphangiogenesis assay was performed as previously reported. Cursiefen et al., Cornea 25:443-447 (2006). Briefly, 10-0 nylon sutures (Ethicon, Cincinnati, Ohio) were placed in the cornea at […]. Beginning immediately after suture placement, animals were treated with systemic tacrolimus or vehicle control daily for two weeks, followed by analysis using confocal microscopy (Leica Microsystems, Weitziar, Germany). […] Cutaneous lymphangiogenesis was assessed using an ear punch wound model as previously reported. […] Tile-scan images were obtained using a confocal microscope (Leica Microsystems, Weitziar, Germany) and skin within 400 μm of the wound edge was analyzed using Metamorph software (Molecular Devices, Sunnyvale, Calif.). Standardized (200 μm×200 μm) fields were analyzed for the number of branch points present per unit area by two blinded reviewers.

[6] = topical tacrolimus, vs vehicle treated controls

In the case of `C=CC[C@@H]1/C=C(\C)C[C@H](C)C[C@H](OC)[C@H]2O[C@@](O)(C(=O)C(=O)N3CCCC[C@H]3C(=O)O[C@H](/C(C)=C/[C@@H]3CC[C@@H](O)[C@H](OC)C3)[C@H](C)[C@@H](O)CC1=O)[C@H](C)C[C@@H]2OC` [tacrolimus], the “lymphatic vessel branching in ear skin adjacent to the wound” value [1] is listed as “significantly increased”, the “lymphatic vessel density in ear skin adjacent to the wound” value [1] is listed as “significantly increased” and the “known therapeutic immunosuppressive levels achieved with systemic administration” value [2] is listed as 5 to 15 ng/mL. For the same compound, the “blood T cells (CD3+)” value ([3]; systemic tacrolimus 4 mg kg^−1 IP daily, vs vehicle control) was “significant reduction”, the “circulating CD4+ cells” value [3, 6] was “no changes” and the “circulating blood T cells (CD3+)” value [3, 6] was “no changes”. The “whole blood tacrolimus levels” value ([4]; systemic tacrolimus 4 mg kg^−1 IP daily) was “immunosuppressive concentrations”, the “whole blood tacrolimus level (systemic absorption), mean value” ([4]; topical tacrolimus) was 1.06 ng/mL and the “lymphangiogenesis in uninjured, non-inflamed ear” value (unwounded mouse ears) was “no increase”. The “increase in proliferation of corneal lymphatic vessels (LYVE-1+)” value [5] was 48%.
